From PMC9456400 (International Journal of Molecular Sciences, 2022)

Columns and labels:
[1] = target: recombinant human CYP3A4 (Homo sapiens, UniProt P08684); assay: Vivid CYP450 Red screening assay (BOMR substrate, baculosomes)
Protocol: The Vivid® BOMR substrate is a blocked dye that yields a minimal fluorescence signal until metabolized by CYP3A4 into products that are highly fluorescent in aqueous solutions (Figure 5, left panel).
The stringent validation process ensures the highest quality data possible for the 10-point titration, which was performed in duplicate (n = 3). An additional two control wells for each compound concentration tested are conducted to detect autofluorescent compound interference.

[2] = system: Huh-7 cells; assay: Toxicity of the combination in long-term confluent Huh-7 cells; format: cell-based, human; details: silibinin as high as 100 μmol/L, Huh-7 growing confluent for more than 1 month
Source text: Our multi-faceted approach involving computational modeling, neural network-based prediction models to classify CYP inhibition, and in vitro validation using recombinant human CYP3A4, confirms and further extends the notion that exposure to standard doses of silibinin-containing milk thistle preparations leading to relatively low peak systemic concentrations (1–10 μmol/L) are expected to be accompanied by low-risk for an inhibitory interaction of the first-pass clearance of lorlatinib at the hepatic level.

[3] = standard doses of silibinin-containing milk thistle preparations ref 57; cited from earlier work
[4] = system: HepG2 cells; assay: Oil Red O staining of neutral lipids; format: cell-based, human; details: HepG2, acute exposure 48 h; silibinin 100 μmol/L as co-treatment with lorlatinib
Protocol: To confirm these findings, we employed an independent in vitro model of fatty liver disease involving non-tumorigenic HepG2 cells, which are routinely employed as an inducible fatty liver cell model to screen for therapeutic drugs to eliminate lipid accumulation.
(§1) For assessment of neutral lipid formation, cells were washed in PBS, fixed with 4% paraformaldehyde for 30 min, washed in distilled water, and then briefly incubated in 60% isopropanol. Following equilibration, cells were stained with a working solution (60%) of Oil Red O for 20 min. An Oil Red O stock solution was prepared by dissolving 0.35% w/v Oil Red O in 100 mL 100% isopropanol. HCS LipidTOX™ Green Neutral Lipid Stain (Invitrogen; Cat. #H34475) was employed as a second staining cocktail for visualization of intracellular neutral lipids. Formaldehyde fixation and preparing/using the labeling solution was carried out as per the manufacturer’s instructions.

[5] = system: Huh-7 cells; assay: Oil Red O and LipidTOX staining of neutral lipids; format: cell-based, human; details: Huh-7, chronic exposure 7 days; silibinin 10 μmol/L as co-treatment with lorlatinib
Protocol: We first employed a conventional index of fatty liver disease––the intracellular accumulation of neutral lipids (steatosis)––to confirm the ability of lorlatinib to trigger hypertriglyceridemia and hypercholesteremia.
as §1

[6] = system: Huh-7 cells; assay: UHPLC-ESI-QTOF-MS/MS lipidomics; format: cell-based, human
Source text: We then questioned whether lorlatinib used at concentrations efficacious against ALK-rearranged lung cancer cells but non-toxic to ALK-negative cells could promote substantial lipidome changes in Huh-7 cells (Figure 1B; Table 1). Accordingly, […], and the lipidome was characterized in a semi-targeted approach using a UHPLC-ESI-QTOF-MS/MS method, in which we matched mass spectra with commercial standards (SPLAH mix), databases such as METLIN-PCDL and Lipid MAPS (accessed on 1 July 2022), as well as corroboration of tentative lipid species upon obtaining their MS/MS spectrum. Representative chromatograms of lipidomic analyses in Huh-7 cells can be found in Figure S1.
Lipid extraction, preparation of external calibration curves, and quality control approaches were carried out as described. Samples (2 μL) were injected directly into a 1290 Infinity UHPLC system coupled with a dual Agilent jet stream ESI source to a 6550 QTOF-MS instrument (Agilent Technologies, Santa Clara, CA, USA). UHPLC-ESI-QTOF-MS conditions, data analysis and indirect quantification of selected lipid species using MassHunter Qualitative Analysis B.07.00 software (Agilent Technologies), and corroboration of the tentative characterization of compound match entities using the Lipid Maps database (www.lipidmaps.org, accessed on 1 July 2022) and targeted MS/MS acquisition on LC-QTOF-MS instrument, have been previously described in detail.
Differentially expressed lipid species from untargeted lipidomic data were analyzed by generating volcano plots indicating statistical significance versus magnitude of fold-change for each lipid species (cutoff of Benjamini–Hochberg corrected p-value < 0.05 and log2 fold-change > 1 or […]).

[7] = system: Huh-7 cells; assay: Colorimetric enzymatic quantification of cholesteryl esters and triglycerides; format: cell-based, human; details: lorlatinib-treated (1 μmol/L) Huh-7 cells, silibinin 100 μmol/L, 48 h

recombinant human CYP3A4, sequence (P08684 whole entry): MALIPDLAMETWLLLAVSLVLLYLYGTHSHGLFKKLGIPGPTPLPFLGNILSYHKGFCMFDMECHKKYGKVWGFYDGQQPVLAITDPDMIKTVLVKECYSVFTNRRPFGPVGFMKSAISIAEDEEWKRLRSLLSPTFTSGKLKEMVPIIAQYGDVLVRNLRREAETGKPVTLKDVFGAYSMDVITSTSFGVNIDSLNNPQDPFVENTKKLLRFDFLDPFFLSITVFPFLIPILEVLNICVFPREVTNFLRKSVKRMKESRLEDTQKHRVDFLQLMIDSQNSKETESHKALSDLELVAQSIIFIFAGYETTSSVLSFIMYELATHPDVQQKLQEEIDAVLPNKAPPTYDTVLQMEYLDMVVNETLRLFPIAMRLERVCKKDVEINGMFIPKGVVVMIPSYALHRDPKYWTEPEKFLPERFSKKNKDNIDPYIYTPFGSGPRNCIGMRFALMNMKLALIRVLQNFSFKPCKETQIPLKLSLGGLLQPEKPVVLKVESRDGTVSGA

| IC50 [1] | SMILES | Toxic effects of the combination with lorlatinib [2] | Peak systemic concentrations [3] | Accumulation of neutral lipids (lipid droplets) [4] | Accumulation of neutral lipids (lipid droplets) [5] | Change of lipid species, single agent ([6]; Huh-7, 48 h, lorlatinib 1 μmol/L, silibinin 100 μmol/L) | Effect of co-treatment on lorlatinib-induced rise of lipid species ([6]; Huh-7, silibinin 100 μmol/L with lorlatinib 1 μmol/L, 48 h) | Accumulation of cholesterol esters and triglycerides [7] |
| --- | --- | --- | --- | --- | --- | --- | --- | --- |
| > 300 µM | CC(C)c1nc(N(C)S(C)(=O)=O)nc(-c2ccc(F)cc2)c1/C=C/[C@@H](O)C[C@@H](O)CC(=O)O [rosuvastatin] |  |  |  |  |  |  |  |
|  | COc1cc(C2Oc3cc([C@H]4Oc5cc(O)cc(O)c5C(=O)[C@@H]4O)ccc3OC2CO)ccc1O (some centres unmarked) [silibinin] | failed to observed significant toxic effects | 1 to 10 µmol/L | markedly fewer and smaller neutral lipid depots | notably decreased the quantity and size of the lipid droplets | significantly lowered the baseline abundance of many ChoE species | completely blunted the significant lorlatinib-induced rise in numerous ChoE and TG/DG species | inhibit the accumulation of cholesterol esters and triglycerides |
